These results are taken from patent publication US20230057979A1, “MEDICINAL COMPOSITIONS FOR CARBON DIOXIDE BASED METERED DOSE INHALERS” (KINDEVA DRUG DELIVERY L.P., priority 2020, published 2023).

A short description of data set [1]: Beclomethasone Dipropionate (BDP) Aerodynamic Particle Size Distribution (APSD) by NGI. It counts as physicochemical. Conditions: Example 6 formulation, NGI 30 L/min, five actuations, average of three canisters. The procedure: APSD was determined using a Next Generation Impactor (NGI Model 170, Copley Scientific Limited UK) at a flow rate of 30±0.5 L/min drawn using a high-capacity pump (HCP5, Copley Scientific Limited, UK) the flow rate determined using a digital flow meter (Model 4043, TSI Instruments). The filter stage was fitted with a Whatman grade 934-AH glass microfiber filter. Units were tested at the start of life using a 3M Mark 6 actuator (3M, Loughborough, UK) with an exit orifice diameter of 0.25 mm and a jet length of 0.8 mm. Prior to testing, the inhaler was actuated five times to ensure the valve was primed after which the valve stem was cleaned and dried. The inhaler was then attached to the NGI with the use of an appropriate coupler and actuated five times into the NGI. The BDP was recovered from each component using methanol (HPLC grade, Thermo Fisher Scientific, Inc., Waltham, Mass.) using a volume of 10 mL for the stem/can, 30 mL for the throat/coupler, 5 mL for cups 1 to 4 and 20 mL for all other components. Recovery was performed using a rocker station (Gentle Rocker 4515, Copley Scientific Limited UK). Samples were assayed by reversed phase isocratic liquid chromatography using UV detection (Acquity H-Class UPLC, Waters Limited) with the parameter settings presented in Table 1. [table]

The conditions of data set [2]: stated in description, cited from earlier work.
Data set [3] in a line: Salbutamol Sulphate Aerodynamic Particle Size Distribution (APSD) by NGI. It counts as physicochemical. Conditions: Example 7 formulation, NGI 30 L/min, six actuations, average of three canisters. The procedure: APSD was determined using a Next Generation Impactor as described in the BDP APSD test method. Prior to testing, the inhaler was actuated five times to ensure the valve was primed after which the valve stem was cleaned and dried. The inhaler was then attached to the NGI with the use of an appropriate coupler and actuated six times into the NGI. The Salbutamol sulphate was recovered from each component using a solution of acetonitrile/0.1% phosphoric acid in water (9:1 v/v) using a volume of 20 mL for the throat/coupler and 10 mL for all other components. Recovery was performed using a rocker station (Gentle Rocker, Copley Scientific Limited UK). Samples were assayed by reversed phase gradient liquid chromatography using UV detection (HP1100, Agilent Technologies UK Limited), with the parameter settings in Table 2 and Table 3. [table] [table]

Take `CCC(=O)OCC(=O)[C@@]1(OC(=O)CC)[C@@H](C)C[C@H]2[C@@H]3CCC4=CC(=O)C=C[C@]4(C)[C@@]3(Cl)[C@@H](O)C[C@@]21C` [BDP, beclomethasone dipropionate]: in data set [1], the “BDP deposited: Actuator” value worked out at 10.8 µg, the “BDP deposited: Cup 1” value was 0.3 µg, the “BDP deposited: Cup 2” value was found to be 0.1 µg and the “BDP deposited: Cup 3” value amounted to 0.1 µg. In data set [1], the “BDP deposited: Cup 4” value was found to be 0.8 µg, the “BDP deposited: Cup 5” value amounted to 4.3 µg, the “BDP deposited: Cup 6” value was 7.4 µg and the “BDP deposited: Cup 7” value came to 4.7 µg. In data set [1], the “BDP deposited: Filter” value came out at 1.6 µg, the “BDP deposited: MOC” value came to 5.9 µg, the “BDP deposited: Stem” value worked out at 3.6 µg and the “BDP deposited: Throat/Coupler” value came out at 59.0 µg.
With `O=C=O` [carbon dioxide], the “vapor pressure at about 20° C.” value in data set [2] (pure liquid propellant, about 20 °C) was “about 57 bar”. Also, in data set [2] (pure liquid propellant, about 40 °C), the “vapor pressure at about 40° C.” value is “about 80 bar”. Further, the “liquid to supercritical phase transition temperature or critical point temperature” value in data set [2] (pure propellant) is “about 31 °C”.
As for salbutamol sulphate [SS], in data set [3], the “SS deposited: Actuator” value is 7.9 µg, the “SS deposited: Cup 1” value was determined as 0.20 µg, the “SS deposited: Cup 2” value was found to be 0.07 µg and the “SS deposited: Cup 3” value was determined as 0.45 µg. For the same compound, in data set [3], the “SS deposited: Cup 4” value is 2.5 µg, the “SS deposited: Cup 5” value was found to be 3.7 µg, the “SS deposited: Cup 6” value worked out at 2.1 µg and the “SS deposited: Cup 7” value worked out at 0.60 µg. In data set [3], the “SS deposited: Filter” value amounted to 0.05 µg, the “SS deposited: MOC” value was 0.29 µg, the “SS deposited: Stem” value stood at 1.4 µg and the “SS deposited: Throat/Coupler” value worked out at 54.2 µg.
